A short description of the data set: Dissociation constant by non-linear regression analysis. The data set is classed as physicochemical.

Here are results for 3 compounds from ChEMBL document CHEMBL1144982, “Ganglioside GM1 mimics: lipophilic substituents improve affinity for cholera toxin” (Bioorg Med Chem Lett, 2003).

Molecules are shown by their SMILES.

Take `CC(=O)N[C@@H]1[C@H](O[C@H]2C[C@H](C(=O)OC(C)(C)C)[C@@H](C(=O)OC(C)(C)C)C[C@H]2O[C@H](Cc2ccccc2)C(=O)O)O[C@@H](CO)[C@H](O)[C@@H]1O[C@@H]1O[C@@H](CO)[C@H](O)[C@H](O)[C@@H]1O`: the Kd (in general, the concentration at which binding is half-saturated) turned out to be 10 µM.

For the compound `CC(=O)N[C@@H]1[C@H](O[C@H]2C[C@H](C(=O)OC(C)(C)C)[C@@H](C(=O)OC(C)(C)C)C[C@H]2O[C@H](CC2CCCCC2)C(=O)O)O[C@@H](CO)[C@H](O)[C@@H]1O[C@@H]1O[C@@H](CO)[C@H](O)[C@H](O)[C@@H]1O`, the Kd was 45 µM.

With `CC(=O)N[C@@H]1[C@H](O[C@H]2C[C@H](C(=O)OC(C)(C)C)[C@@H](C(=O)OC(C)(C)C)C[C@H]2O[C@H](C)C(=O)O)O[C@@H](CO)[C@H](O)[C@@H]1O[C@@H]1O[C@@H](CO)[C@H](O)[C@H](O)[C@@H]1O`, the Kd was 190 µM.
